Assay type in all cases: functional
The test system of test [1] is Staphylococcus aureus. Kind of test: Antibacterial activity against erythromycin-susceptible Staphylococcus aureus ATCC 25923.
Test [2] deals with Streptococcus pneumoniae. Kind of test: Antibacterial activity against erythromycin-susceptible Streptococcus pneumoniae ATCC 49619.
Test [3] relates to Staphylococcus aureus. Kind of test: Antibacterial activity against methicillin-susceptible Staphylococcus aureus ATCC 29213.
For test [4], the system named is Streptococcus pyogenes. Kind of test: Antibacterial activity against erythromycin-susceptible Streptococcus pyogenes isolate S2.
For test [5], the system named is Streptococcus pyogenes. Kind of test: Antibacterial activity against erythromycin-resistant Streptococcus pyogenes isolate R2.
The test system of test [6] is Streptococcus pneumoniae. Kind of test: Antibacterial activity against erythromycin-resistant Streptococcus pneumoniae B1 expressing ermB gene.
Test [7] concerns Streptococcus pneumoniae. Kind of test: Antibacterial activity against erythromycin-resistant Streptococcus pneumoniae A22072 expressing mefA gene.
Test [8] deals with Streptococcus pneumoniae. Kind of test: Antibacterial activity against erythromycin-resistant Streptococcus pneumoniae AB11 expressing ermB/mefA gene.
The test system of test [9] is Escherichia coli. Kind of test: Antibacterial activity against Escherichia coli ATCC 25922.
Test [10] relates to Pseudomonas aeruginosa. Kind of test: Antibacterial activity against Pseudomonas aeruginosa ATCC 27853.
The test system of test [11] is Streptococcus pneumoniae. Kind of test: Potency index, ratio of azithromycin MIC to compound MIC for erythromycin-resistant Streptococcus pneumoniae B1 expressing ermB gene.
Test [12] deals with Streptococcus pneumoniae. Kind of test: Potency index, ratio of azithromycin MIC to compound MIC for erythromycin-resistant Streptococcus pneumoniae A22072 expressing mefA gene.
Test [13] deals with Streptococcus pneumoniae. Kind of test: Potency index, ratio of azithromycin MIC to compound MIC for erythromycin-resistant Streptococcus pneumoniae AB11 expressing ermB/mefA gene.
In test [14] the test system is Streptococcus pneumoniae. Kind of test: Potency index, ratio of clarithromycin MIC to compound MIC for erythromycin-resistant Streptococcus pneumoniae B1 expressing ermB gene.
Test [15] relates to Streptococcus pneumoniae. Kind of test: Potency index, ratio of clarithromycin MIC to compound MIC for erythromycin-resistant Streptococcus pneumoniae A22072 expressing mefA gene.
Test [16] has as its system Streptococcus pneumoniae. Kind of test: Potency index, ratio of clarithromycin MIC to compound MIC for erythromycin-resistant Streptococcus pneumoniae AB11 expressing ermB/mefA gene.

SMILES strings stand for the structures. In brackets after ≈: the same amount, converted by molar mass.

As usually defined, the MIC is the lowest concentration found to suppress growth.

`CC[C@H]1OC(=O)[C@H](C)[C@@H](O[C@H]2C[C@@](C)(OC)[C@@H](OC(=O)NCc3cn(Cc4cccc(C)c4)nn3)[C@H](C)O2)[C@H](C)[C@@H](O[C@@H]2O[C@H](C)C[C@H](N(C)C)[C@H]2O)[C@](C)(O)C[C@@H](C)CN(C)[C@H](C)[C@@H](O)[C@]1(C)O`: the MIC in [1] was 1 µg/mL (≈ 1.02 µM); in [2] it was 0.5 µg/mL (≈ 0.512 µM); in test [3], 16 µg/mL (≈ 16.4 µM); in test [4], 0.03 µg/mL (≈ 0.0307 µM); in test [5], 32 µg/mL (≈ 32.7 µM); in test [6], 1 µg/mL (≈ 1.02 µM). The MIC in test [7] worked out at 1 µg/mL (≈ 1.02 µM); in test [8], 1 µg/mL (≈ 1.02 µM); in test [9], 32 µg/mL (≈ 32.7 µM); in [10], 32 µg/mL (≈ 32.7 µM).
For the molecule `CC[C@H]1OC(=O)[C@H](C)[C@@H](O[C@H]2C[C@@](C)(OC)[C@@H](OC(=O)NCc3cn(Cc4c(Cl)cccc4Cl)nn3)[C@H](C)O2)[C@H](C)[C@@H](O[C@@H]2O[C@H](C)C[C@H](N(C)C)[C@H]2O)[C@](C)(O)C[C@@H](C)CN(C)[C@H](C)[C@@H](OC(=O)NCc2ccc(OC)cc2)[C@]1(C)O`, the MIC in test [1] was 0.25 µg/mL (≈ 0.209 µM); in [2] it was 0.06 µg/mL (≈ 0.0502 µM); in test [3], 16 µg/mL (≈ 13.4 µM); in test [4], less than 0.002 µg/mL; in test [5] it was 1 µg/mL (≈ 0.837 µM); in test [6], 0.125 µg/mL (≈ 0.105 µM). Further, the MIC in test [7] amounted to 0.03 µg/mL (≈ 0.0251 µM); in test [8], 0.25 µg/mL (≈ 0.209 µM); in test [9], 16 µg/mL (≈ 13.4 µM); in [10], 16 µg/mL (≈ 13.4 µM). The Ratio is on record as 1024 - 2133 in test [11]; 32 - 133 in test [12]; 1024 - 2048 in test [13]; 1024 - 2133 in test [14]; 32 - 133 in test [15]; 1024 - 2048 in test [16].
Consider `CC[C@H]1OC(=O)[C@H](C)[C@@H](O[C@H]2C[C@@](C)(OC)[C@@H](OC(=O)NCc3cn(Cc4c(Cl)cccc4Cl)nn3)[C@H](C)O2)[C@H](C)[C@@H](O[C@@H]2O[C@H](C)C[C@H](N(C)C)[C@H]2O)[C@](C)(O)C[C@@H](C)CN(C)[C@H](C)[C@H]2OC(=O)O[C@@]21C`, for which the MIC in [1] turned out to be 4 µg/mL (≈ 3.78 µM); in [2] it was 1 µg/mL (≈ 0.945 µM); in [3] it was 32 µg/mL (≈ 30.2 µM); in [4], 0.125 µg/mL (≈ 0.118 µM); in test [5], 16 µg/mL (≈ 15.1 µM); in [6] it was 1 µg/mL (≈ 0.945 µM). In addition, the MIC worked out at 0.25 µg/mL (≈ 0.236 µM) in [7], 0.25 µg/mL (≈ 0.236 µM) in test [8], 128 µg/mL (≈ 121 µM) in [9] and 64 µg/mL (≈ 60.5 µM) in test [10]. For the same molecule, the Ratio in test [11] amounted to 128; in [12] it was 16; in test [13] it was 1024.
Regarding `CC[C@H]1OC(=O)[C@H](C)[C@@H](O[C@H]2C[C@@](C)(OC)[C@@H](OC(=O)NCc3cn(Cc4ccc(Cl)cc4Cl)nn3)[C@H](C)O2)[C@H](C)[C@@H](O[C@@H]2O[C@H](C)C[C@H](N(C)C)[C@H]2O)[C@](C)(O)C[C@@H](C)CN(C)[C@H](C)[C@@H](OC(=O)NCc2ccc(OC)cc2)[C@]1(C)O`, the MIC was 0.25 µg/mL (≈ 0.209 µM) in [1]; 0.06 µg/mL (≈ 0.0502 µM) in test [2]; 16 µg/mL (≈ 13.4 µM) in test [3]; less than 0.002 µg/mL in [4]; 8 µg/mL (≈ 6.69 µM) in test [5]; 0.125 µg/mL (≈ 0.105 µM) in [6]. Moreover, the MIC in test [7] was 0.125 µg/mL (≈ 0.105 µM); in test [8], 0.25 µg/mL (≈ 0.209 µM); in test [9] it was 16 µg/mL (≈ 13.4 µM); in test [10], 16 µg/mL (≈ 13.4 µM). In addition, the Ratio in test [11] is given as 1024 - 2133; in [12], 32 - 133; in [13], 1024 - 2048; in test [14], 1024 - 2133; in test [15], 32 - 133; in [16] it was 1024 - 2048.
As for `CC[C@H]1OC(=O)[C@H](C)[C@@H](O[C@H]2C[C@@](C)(OC)[C@@H](OC(=O)NCc3cn(Cc4ccccc4Cl)nn3)[C@H](C)O2)[C@H](C)[C@@H](O[C@@H]2O[C@H](C)C[C@H](N(C)C)[C@H]2O)[C@](C)(O)C[C@@H](C)CN(C)[C@H](C)[C@@H](OC(=O)NCc2ccc(OC)cc2)[C@]1(C)O`, the MIC in [1] is 0.03 µg/mL (≈ 0.0258 µM); in test [2], 0.125 µg/mL (≈ 0.108 µM); in [3] it was 16 µg/mL (≈ 13.8 µM); in test [4], less than 0.002 µg/mL; in test [5], 8 µg/mL (≈ 6.89 µM); in [6], 0.06 µg/mL (≈ 0.0517 µM). Further, the MIC in test [7] was 0.03 µg/mL (≈ 0.0258 µM); in [8], 0.125 µg/mL (≈ 0.108 µM); in [9], 32 µg/mL (≈ 27.6 µM); in test [10], 8 µg/mL (≈ 6.89 µM). The Ratio in test [11] was 1024 - 2133; in [12], 32 - 133; in test [13] it was 1024 - 2048; in test [14], 1024 - 2133; in test [15], 32 - 133; in [16] it was 1024 - 2048.
In the case of `CC[C@H]1OC(=O)[C@H](C)[C@@H](O[C@H]2C[C@@](C)(OC)[C@@H](OC(=O)NCc3cn(Cc4ccc(C)cc4)nn3)[C@H](C)O2)[C@H](C)[C@@H](O[C@@H]2O[C@H](C)C[C@H](N(C)C)[C@H]2O)[C@](C)(O)C[C@@H](C)CN(C)[C@H](C)[C@@H](OC(=O)NCc2ccc(OC)cc2)[C@]1(C)O`, the MIC was 0.06 µg/mL (≈ 0.0526 µM) in [1]; 0.125 µg/mL (≈ 0.11 µM) in [2]; 32 µg/mL (≈ 28.1 µM) in test [3]; less than 0.002 µg/mL in test [4]; 8 µg/mL (≈ 7.01 µM) in test [5]; 0.125 µg/mL (≈ 0.11 µM) in test [6]. For the same molecule, the MIC is 0.03 µg/mL (≈ 0.0263 µM) in test [7], 0.25 µg/mL (≈ 0.219 µM) in test [8], 16 µg/mL (≈ 14 µM) in test [9] and 64 µg/mL (≈ 56.1 µM) in test [10]. Further, the Ratio in [11] is given as 1024 - 2133; in test [12], 32 - 133; in [13] it was 1024 - 2048; in [14], 1024 - 2133; in test [15], 32 - 133; in test [16], 1024 - 2048.
Turning to `CC[C@H]1OC(=O)[C@H](C)[C@@H](O[C@H]2C[C@@](C)(OC)[C@@H](O)[C@H](C)O2)[C@H](C)[C@@H](O[C@@H]2O[C@H](C)C[C@H](N(C)C)[C@H]2O)[C@](C)(O)C[C@@H](C)CN(C)[C@H](C)[C@@H](O)[C@]1(C)O` [AZITHROMYCIN], the MIC turned out to be 0.25 µg/mL (≈ 0.334 µM) in test [1]; 0.125 µg/mL (≈ 0.167 µM) in test [2]; 1 µg/mL (≈ 1.34 µM) in test [3]; 0.03 µg/mL (≈ 0.0401 µM) in test [4]; 128 µg/mL (≈ 171 µM) in test [5]; 128 µg/mL (≈ 171 µM) in [6]. Also, the MIC in [7] came to 4 µg/mL (≈ 5.34 µM); in [8] it was 256 µg/mL (≈ 342 µM); in test [9], 16 µg/mL (≈ 21.4 µM); in test [10], 8 µg/mL (≈ 10.7 µM).
Take `CC[C@H]1OC(=O)[C@H](C)[C@@H](O[C@H]2C[C@@](C)(OC)[C@@H](O)[C@H](C)O2)[C@H](C)[C@@H](O[C@@H]2O[C@H](C)C[C@H](N(C)C)[C@H]2O)[C@](C)(OC)C[C@@H](C)C(=O)[C@H](C)[C@@H](O)[C@]1(C)O` [CLARITHROMYCIN]: the MIC in test [1] stood at 0.12 µg/mL (≈ 0.16 µM); in test [2], 0.125 µg/mL (≈ 0.167 µM); in test [3] it was 0.25 µg/mL (≈ 0.334 µM); in test [4], 0.03 µg/mL (≈ 0.0401 µM); in test [5] it was 128 µg/mL (≈ 171 µM); in [6] it was 128 µg/mL (≈ 171 µM). For the same molecule, the MIC turned out to be 4 µg/mL (≈ 5.35 µM) in test [7], 128 µg/mL (≈ 171 µM) in test [8], 64 µg/mL (≈ 85.6 µM) in test [9] and 32 µg/mL (≈ 42.8 µM) in [10].
